Results as given in patent publication US20020162794A1, “Anaerobic digestion” (priority 2001, published 2002).
Values joined by “and” are separate entries in the source; they are usually repeats but may differ in a detail not shown here. Identical values can stand only once.

Assays:
[1] = system: cattle; conditions: added to organic roughage fed to cattle; cited from earlier work
[2] = system: mixed culture from municipal sludge digester; test: Total Volatile Solids (TVS) of batch anaerobic digester reactors
Procedure: After the above TS measurements were completed, the pans together with dried samples are put into furnace at 550° C. for about two hours. The weight of the pans are then noted (say W3). The difference […] then gives the weight of volatile solids in the 30 ml sample. Again this Total Volatile Solids concentration is manipulated to units of g/liter. TVS determination represents the concentration of the organic substrate in the test sample.
Municipal sludge from the city of Lubbock, Wastewater Treatment Plant was digested in 12 batch digesters. Using twelve batch reactors allowed the collection of control reactors data (i.e., no formate in the reactors) in triplicate, titration studies of increasing formate concentration, and duplicates/triplicates of varying formate concentration. Experiments were conducted in the laboratories of Texas Tech University.
The reactors were setup on Mar. […] The substrate taken was 2 parts of 50 g/liter sucrose solution mixed with 1 part of digested municipal sludge which acts as the seed material for incorporation of microbes into the reactors. The experiments were started with the following protocol. [drawing 1]

**Q.** With O=C[O-].[Na+] [sodium formate] as the molecule, how does the “increase of digestibility of the feed” value [1] read?
**A.** Its value is 4-27%.

**Q.** What about the “Total Volatile Solids” value ([2]; 1000 ppm, day 2) of the same molecule?
**A.** Its value is 33.4 g/L and 32.6 g/L and 26.7 g/L.

**Q.** What about the “Total Volatile Solids” value ([2]; 1000 ppm, day 7) of the same molecule?
**A.** The value was 30.6 g/L and 29.9 g/L and 29.3 g/L.

**Q.** What about the “Total Volatile Solids” value ([2]; 1000 ppm, day 16) of the same molecule?
**A.** The value was 16.4 g/L and 13.1 g/L and 18.1 g/L.

**Q.** What about the “Total Volatile Solids” value ([2]; 1000 ppm, day 24) of the same molecule?
**A.** The value was 14.4 g/L and 10.3 g/L and 15.2 g/L.

**Q.** And the “Total Volatile Solids” value ([2]; 1000 ppm, day 55)?
**A.** The value was 12.9 g/L and 10.7 g/L and 14.2 g/L.

**Q.** And the “Total Volatile Solids” value ([2]; 1000 ppm, with formate addition at t = 0)?
**A.** The value was 39.6 g/L and 38.8 g/L and 37.3 g/L.

**Q.** What about the “Total Volatile Solids” value ([2]; 5000 ppm, day 2) of the same molecule?
**A.** Its value is 23.7 g/L.

**Q.** What about the “Total Volatile Solids” value ([2]; 5000 ppm, day 7) of the same molecule?
**A.** Its value is 20.3 g/L.

**Q.** What about the “Total Volatile Solids” value ([2]; 5000 ppm, day 16) of the same molecule?
**A.** Its value is 12.6 g/L.

**Q.** What about the “Total Volatile Solids” value ([2]; 5000 ppm, day 24) of the same molecule?
**A.** The value was 11.7 g/L.

**Q.** What about the “Total Volatile Solids” value ([2]; 5000 ppm, day 55) of the same molecule?
**A.** The value was 14.7 g/L.

**Q.** And the “Total Volatile Solids” value ([2]; 5000 ppm, with formate addition at t = 0)?
**A.** Its value is 41.8 g/L.

**Q.** What about the “Total Volatile Solids” value ([2]; 10000 ppm, day 2) of the same molecule?
**A.** Its value is 25.5 g/L and 30.2 g/L and 29.8 g/L.

**Q.** And the “Total Volatile Solids” value ([2]; 10000 ppm, day 7)?
**A.** Its value is 19.2 g/L and 24 g/L and 24.1 g/L.

**Q.** And the “Total Volatile Solids” value ([2]; 10000 ppm, day 16)?
**A.** The value was 17.1 g/L and 21.0 g/L and 15.0 g/L.

**Q.** And the “Total Volatile Solids” value ([2]; 10000 ppm, day 24)?
**A.** The value was 16.4 g/L and 18.9 g/L and 15.2 g/L.

**Q.** And the “Total Volatile Solids” value ([2]; 10000 ppm, day 55)?
**A.** The value was 19.8 g/L and 20.1 g/L and 18.5 g/L.

**Q.** What about the “Total Volatile Solids” value ([2]; 10000 ppm, with formate addition at t = 0) of the same molecule?
**A.** Its value is 38.8 g/L and 46.9 g/L and 46.4 g/L.

**Q.** What about the “Total Volatile Solids” value ([2]; 100000 ppm, day 2) of the same molecule?
**A.** Its value is 68.5 g/L and 80.8 g/L.

**Q.** And the “Total Volatile Solids” value ([2]; 100000 ppm, day 7)?
**A.** The value was 45.8 g/L and 52.7 g/L.

**Q.** What about the “Total Volatile Solids” value ([2]; 100000 ppm, day 16) of the same molecule?
**A.** Its value is 44.7 g/L and 54.10 g/L.

**Q.** What about the “Total Volatile Solids” value ([2]; 100000 ppm, day 24) of the same molecule?
**A.** Its value is 41.4 g/L and 51.6 g/L.

**Q.** What about the “Total Volatile Solids” value ([2]; 100000 ppm, day 55) of the same molecule?
**A.** Its value is 45.5 g/L and 65.8 g/L.

**Q.** And the “Total Volatile Solids” value ([2]; 100000 ppm, with formate addition at t = 0)?
**A.** Its value is 126.6 g/L and 134.9 g/L.
